Experimental data: ChEMBL document CHEMBL4321837, “Discovery of Potent and Orally Effective Dual Janus Kinase 2/FLT3 Inhibitors for the Treatment of Acute Myelogenous Leukemia and Myeloproliferative Neoplasms” (J Med Chem, 2019)

Legend:
[1] = test system: MV4-11; test: Antiproliferative activity against FLT3-ITD-positive human MV4-11 cells assessed as reduction in cell growth after 72 hrs by MTT assay; assay type: functional, cell-based; conditions: MV4-11, 72 h
[2] = test system: MOLM-13; test: Antiproliferative activity against FLT3-ITD-positive human MOLM13 cells assessed as reduction in cell growth after 72 hrs by MTT assay; assay type: functional, cell-based; conditions: MOLM-13, 72 h
[3] = biological target: Tyrosine-protein kinase JAK1 (Homo sapiens, UniProt P23458); test: Inhibition of human JAK1 (866 to end residues) assessed as residual activity at 100 nM using GEEPLYWSFPAKK as substrate after 40 mins in presence of [gamma33P]-ATP by scintillation counting based radiometric assay relative to control
Sequence of Tyrosine-protein kinase JAK1 (P23458 whole entry): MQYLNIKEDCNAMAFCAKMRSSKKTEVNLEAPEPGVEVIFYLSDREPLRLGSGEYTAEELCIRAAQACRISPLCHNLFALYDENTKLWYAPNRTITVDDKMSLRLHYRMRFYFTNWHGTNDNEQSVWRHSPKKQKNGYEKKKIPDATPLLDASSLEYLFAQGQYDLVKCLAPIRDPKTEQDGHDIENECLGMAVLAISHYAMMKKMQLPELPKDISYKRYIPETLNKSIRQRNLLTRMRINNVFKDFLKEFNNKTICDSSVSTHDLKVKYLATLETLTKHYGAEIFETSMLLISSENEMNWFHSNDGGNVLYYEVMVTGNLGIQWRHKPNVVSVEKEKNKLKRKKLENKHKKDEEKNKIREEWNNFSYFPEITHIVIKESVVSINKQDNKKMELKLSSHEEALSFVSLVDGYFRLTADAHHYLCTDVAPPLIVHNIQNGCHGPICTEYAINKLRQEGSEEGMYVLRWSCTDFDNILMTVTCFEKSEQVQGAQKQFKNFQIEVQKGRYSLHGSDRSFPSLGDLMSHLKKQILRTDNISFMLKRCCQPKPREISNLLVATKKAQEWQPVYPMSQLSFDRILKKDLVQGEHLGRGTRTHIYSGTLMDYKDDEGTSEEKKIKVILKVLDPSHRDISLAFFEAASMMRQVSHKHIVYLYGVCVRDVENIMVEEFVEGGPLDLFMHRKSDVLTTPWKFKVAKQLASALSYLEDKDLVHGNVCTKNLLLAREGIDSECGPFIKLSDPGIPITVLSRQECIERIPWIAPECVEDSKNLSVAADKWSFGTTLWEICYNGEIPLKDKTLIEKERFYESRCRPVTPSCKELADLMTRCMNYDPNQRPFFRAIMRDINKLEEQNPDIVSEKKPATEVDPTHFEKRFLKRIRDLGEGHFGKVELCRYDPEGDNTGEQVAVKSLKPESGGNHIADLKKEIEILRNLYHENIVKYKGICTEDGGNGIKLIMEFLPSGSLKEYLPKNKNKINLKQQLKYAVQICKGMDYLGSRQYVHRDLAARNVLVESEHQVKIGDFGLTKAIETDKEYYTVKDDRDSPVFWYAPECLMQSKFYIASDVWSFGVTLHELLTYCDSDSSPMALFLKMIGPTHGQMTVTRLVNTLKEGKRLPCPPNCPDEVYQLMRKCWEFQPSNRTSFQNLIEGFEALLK

[4] = biological target: Tyrosine-protein kinase JAK2 (Homo sapiens, UniProt O60674); test: Inhibition of human JAK2 (808 to end residues) assessed as residual activity at 100 nM using KTFCGTPEYLAP as substrate after 40 mins in presence of [gamma33P]-ATP by scintillation counting based radiometric assay relative to control
Sequence of Tyrosine-protein kinase JAK2 (O60674 whole entry): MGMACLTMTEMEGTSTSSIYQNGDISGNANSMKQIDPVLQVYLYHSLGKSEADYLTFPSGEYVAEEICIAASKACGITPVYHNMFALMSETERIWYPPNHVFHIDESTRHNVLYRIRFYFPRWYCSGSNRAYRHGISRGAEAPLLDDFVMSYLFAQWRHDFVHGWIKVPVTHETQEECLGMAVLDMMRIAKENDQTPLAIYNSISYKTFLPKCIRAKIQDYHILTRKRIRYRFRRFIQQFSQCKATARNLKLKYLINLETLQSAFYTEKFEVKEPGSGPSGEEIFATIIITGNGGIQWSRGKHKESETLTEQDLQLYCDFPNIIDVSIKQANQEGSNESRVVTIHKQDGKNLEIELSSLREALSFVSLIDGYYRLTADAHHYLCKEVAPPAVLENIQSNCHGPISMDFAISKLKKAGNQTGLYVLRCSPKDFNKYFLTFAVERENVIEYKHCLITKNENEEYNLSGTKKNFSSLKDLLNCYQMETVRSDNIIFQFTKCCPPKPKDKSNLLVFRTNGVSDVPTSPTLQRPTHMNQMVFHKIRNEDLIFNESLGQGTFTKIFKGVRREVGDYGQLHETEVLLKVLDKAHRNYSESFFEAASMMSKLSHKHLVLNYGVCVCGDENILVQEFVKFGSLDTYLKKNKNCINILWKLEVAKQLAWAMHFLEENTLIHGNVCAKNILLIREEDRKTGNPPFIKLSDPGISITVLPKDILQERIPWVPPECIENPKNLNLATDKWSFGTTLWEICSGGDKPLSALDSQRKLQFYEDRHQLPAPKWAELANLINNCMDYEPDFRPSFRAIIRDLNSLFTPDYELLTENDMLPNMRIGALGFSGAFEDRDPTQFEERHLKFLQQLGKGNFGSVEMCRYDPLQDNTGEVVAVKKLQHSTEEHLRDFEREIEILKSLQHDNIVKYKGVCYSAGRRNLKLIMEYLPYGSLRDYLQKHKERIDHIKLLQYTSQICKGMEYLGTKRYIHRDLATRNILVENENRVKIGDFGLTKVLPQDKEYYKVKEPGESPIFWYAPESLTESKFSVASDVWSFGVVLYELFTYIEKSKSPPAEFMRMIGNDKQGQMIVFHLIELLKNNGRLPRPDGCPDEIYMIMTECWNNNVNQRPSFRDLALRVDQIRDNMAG

[5] = biological target: T1, Tyrosine-protein kinase JAK3 (Homo sapiens) (UniProt P52333); test: Inhibition of human JAK3 (781 to end residues) assessed as residual activity at 100 nM using GGEEEEYFELVKK as substrate after 40 mins in presence of [gamma33P]-ATP by scintillation counting based radiometric assay relative to control
T1 sequence (whole entry): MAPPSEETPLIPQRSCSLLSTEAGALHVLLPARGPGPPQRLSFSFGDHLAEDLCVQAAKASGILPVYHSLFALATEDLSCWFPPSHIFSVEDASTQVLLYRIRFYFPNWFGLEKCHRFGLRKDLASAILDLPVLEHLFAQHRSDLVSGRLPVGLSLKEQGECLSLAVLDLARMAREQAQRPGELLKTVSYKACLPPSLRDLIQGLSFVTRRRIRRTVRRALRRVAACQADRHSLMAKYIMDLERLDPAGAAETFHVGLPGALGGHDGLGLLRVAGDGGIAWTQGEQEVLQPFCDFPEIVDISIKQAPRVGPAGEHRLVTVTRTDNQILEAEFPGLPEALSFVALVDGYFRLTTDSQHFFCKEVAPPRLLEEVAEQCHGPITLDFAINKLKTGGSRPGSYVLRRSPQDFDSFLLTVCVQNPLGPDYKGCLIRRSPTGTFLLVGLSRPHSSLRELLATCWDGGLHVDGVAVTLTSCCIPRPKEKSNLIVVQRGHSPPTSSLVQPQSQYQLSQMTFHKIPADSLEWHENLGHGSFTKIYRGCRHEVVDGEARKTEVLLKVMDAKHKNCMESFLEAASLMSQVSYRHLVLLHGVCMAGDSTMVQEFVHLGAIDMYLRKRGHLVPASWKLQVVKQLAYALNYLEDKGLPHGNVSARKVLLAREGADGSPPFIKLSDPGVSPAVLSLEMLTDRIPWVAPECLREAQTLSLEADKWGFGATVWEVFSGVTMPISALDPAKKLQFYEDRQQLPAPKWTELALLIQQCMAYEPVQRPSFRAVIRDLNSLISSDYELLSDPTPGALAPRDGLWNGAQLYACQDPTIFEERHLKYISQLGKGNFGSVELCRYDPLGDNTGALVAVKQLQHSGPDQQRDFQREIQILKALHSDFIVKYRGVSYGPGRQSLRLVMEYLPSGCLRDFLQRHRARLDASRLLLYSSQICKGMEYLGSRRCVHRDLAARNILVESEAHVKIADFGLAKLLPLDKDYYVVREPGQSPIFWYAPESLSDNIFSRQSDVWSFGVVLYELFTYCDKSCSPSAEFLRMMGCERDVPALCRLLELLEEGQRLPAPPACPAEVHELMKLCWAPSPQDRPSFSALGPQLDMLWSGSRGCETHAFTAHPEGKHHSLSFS

[6] = biological target: Receptor-type tyrosine-protein kinase FLT3 (Homo sapiens) (UniProt P36888); test: Inhibition of human FLT3 (564 to end residues) assessed as residual activity at 100 nM using EAIYAAPFAKKK as substrate after 40 mins in presence of [gamma33P]-ATP by scintillation counting based radiometric assay relative to control
Sequence of Receptor-type tyrosine-protein kinase FLT3 (Homo sapiens) (P36888 whole entry): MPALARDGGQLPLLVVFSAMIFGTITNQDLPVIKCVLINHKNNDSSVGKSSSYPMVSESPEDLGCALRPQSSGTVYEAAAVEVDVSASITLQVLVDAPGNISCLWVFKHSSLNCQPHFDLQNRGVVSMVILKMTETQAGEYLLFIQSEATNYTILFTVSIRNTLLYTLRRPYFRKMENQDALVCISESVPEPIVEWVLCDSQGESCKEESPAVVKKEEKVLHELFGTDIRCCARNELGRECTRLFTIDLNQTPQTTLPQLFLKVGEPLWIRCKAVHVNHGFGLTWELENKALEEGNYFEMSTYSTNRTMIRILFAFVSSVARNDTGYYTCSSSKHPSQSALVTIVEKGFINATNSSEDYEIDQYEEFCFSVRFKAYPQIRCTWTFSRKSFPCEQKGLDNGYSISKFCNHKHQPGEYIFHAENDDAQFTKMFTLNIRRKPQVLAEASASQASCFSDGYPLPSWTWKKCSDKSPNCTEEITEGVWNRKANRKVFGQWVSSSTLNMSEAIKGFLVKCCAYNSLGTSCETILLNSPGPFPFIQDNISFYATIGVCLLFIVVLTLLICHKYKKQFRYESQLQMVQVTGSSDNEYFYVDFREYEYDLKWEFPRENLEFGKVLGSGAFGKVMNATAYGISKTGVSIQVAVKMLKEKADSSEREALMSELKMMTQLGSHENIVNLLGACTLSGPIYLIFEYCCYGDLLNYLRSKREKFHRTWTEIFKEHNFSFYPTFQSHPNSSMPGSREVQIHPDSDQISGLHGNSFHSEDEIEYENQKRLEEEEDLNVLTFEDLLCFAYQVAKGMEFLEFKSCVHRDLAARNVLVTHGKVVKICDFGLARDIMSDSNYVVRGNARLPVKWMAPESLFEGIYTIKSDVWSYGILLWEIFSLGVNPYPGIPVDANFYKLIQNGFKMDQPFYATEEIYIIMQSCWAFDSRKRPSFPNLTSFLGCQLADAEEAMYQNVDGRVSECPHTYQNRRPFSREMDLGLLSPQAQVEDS

Row | Compound | IC50 [1] [nM] | IC50 [2] [nM] | Activity [3] [%] | Activity [4] [%] | Activity [5] [%] | Activity [6] [%]
1 | CCCN1CCC(n2cc(-c3nc(Nc4ccc(N5CCN(C)CC5)c(F)c4)ncc3F)cn2)CC1 | 110 | 190 | – | – | – | –
2 | CCCCN1CCC(n2cc(-c3nc(Nc4ccc(N5CCN(C)CC5)c(F)c4)ncc3F)cn2)CC1 | 240 | 180 | 68 | 19 | 32 | 13
3 | CC(C)n1cc(-c2nc(Nc3ccc(N4CCN(C5CCN(C)CC5)CC4)c(F)c3)ncc2F)cn1 | 36 | 590 | 54 | 10 | 44 | 10
4 | CCN1CCN(c2ccc(Nc3ncc(F)c(-c4cnn(C(C)C)c4)n3)cc2F)CC1 | 31 | 250 | 62 | 17 | 66 | 17
5 | CCN1CCN(c2ccc(Nc3ncc(F)c(-c4cnn(C5CCCC5)c4)n3)cc2F)CC1 | 27 | 410 | 57 | 27 | 68 | 12
6 | CCN1CCN(c2ccc(Nc3ncc(F)c(-c4cnn(C(C)C)c4)n3)c(F)c2)CC1 | 57 | 850 | 113 | 39 | 77 | 16
7 | CCCn1cc(-c2nc(Nc3ccc(N4CCN(C)CC4)cc3F)ncc2F)cn1 | 8100 | 9700 | – | – | – | –
8 | CCCn1cc(-c2nc(Nc3ccc(N4CCN(CC)CC4)c(F)c3)ncc2F)cn1 | 61 | 410 | 59 | 27 | 52 | 15
9 | CC(C)n1cc(-c2nc(Nc3ccc(N4CCN(C)CC4)cc3F)ncc2F)cn1 | 7800 | – | – | – | – | –
10 | CCCn1cc(-c2nc(Nc3ccc(N4CCN(CC)CC4)cc3F)ncc2F)cn1 | 4200 | > 10000 | – | – | – | –
11 | CN1CCN(c2ccc(Nc3ncc(F)c(-c4cnn(C5CCCC5)c4)n3)cc2F)CC1 | 8300 | – | – | – | – | –
12 | CC(C)n1cc(-c2nc(Nc3ccc(N4CCN(C)CC4)c(F)c3)ncc2F)cn1 | 26 | 940 | – | – | – | –
13 | CCCCn1cc(-c2nc(Nc3ccc(N4CCN(C)CC4)c(F)c3)ncc2F)cn1 | 27 | 540 | 49 | 15 | 41 | 11
14 | CN(C)C1CCN(c2ccc(Nc3ncc(F)c(-c4cnn(C5CCCC5)c4)n3)cc2F)CC1 | 4500 | – | – | – | – | –
15 | CCCn1cc(-c2nc(Nc3ccc(N4CCN(C)CC4)c(F)c3)ncc2F)cn1 | 57 | 490 | 48 | 19 | 69 | 14

More lines, now with the values ahead:

Row | IC50 [1] [nM] | IC50 [2] [nM] | Activity [3] [%] | Activity [4] [%] | Activity [5] [%] | Activity [6] [%] | Compound
16 | 30 | 70 | 23 | 10 | 36 | 6 | Cc1cnc(Nc2ccc(N3CCC(N(C)CC4CCCO4)CC3)c(F)c2)nc1-c1cnn(C(C)C)c1 (stereo not given)
17 | 210 | 210 | 20 | 8 | 9 | 8 | CCCN(CCN1CCOCC1)C1CCN(c2ccc(Nc3ncc(C)c(-c4cnn(C(C)C)c4)n3)cc2F)CC1
18 | 7.3 | 47 | 24 | 3 | 9 | 6 | CCCN(C)C1CCN(c2ccc(Nc3ncc(C)c(-c4cnn(C(C)C)c4)n3)cc2F)CC1
19 | 70 | 210 | 26 | 18 | 44 | 6 | CCCCCCN(C)C1CCN(c2ccc(Nc3ncc(C)c(-c4cnn(C(C)C)c4)n3)cc2F)CC1
20 | 26 | 100 | 36 | 8 | 47 | 10 | CC(C)n1cc(-c2nc(Nc3ccc(N4CCC(N5CCCCC5)CC4)c(F)c3)ncc2F)cn1
21 | 43 | 150 | 23 | 11 | 33 | 7 | CCN(CCN1CCOCC1)C1CCN(c2ccc(Nc3ncc(C)c(-c4cnn(C(C)C)c4)n3)cc2F)CC1
22 | 32 | 540 | 57 | 6 | 48 | 9 | CC(C)n1cc(-c2nc(Nc3ccc(N4CCC(N(C)C)CC4)c(F)c3)ncc2F)cn1
23 | 1100 | 4000 | – | – | – | – | CCN1CCN(c2ccc(Nc3ncc(C)c(-c4cnn(C(C)C)c4)n3)cc2F)CC1
24 | 200 | 550 | – | – | – | – | Cc1cnc(Nc2ccc(N3CCC(NCCO)CC3)c(F)c2)nc1-c1cnn(C(C)C)c1
25 | 12 | 170 | 21 | 4 | 38 | 6 | Cc1cnc(Nc2ccc(N3CCC(N(C)CCN4CCCCC4)CC3)c(F)c2)nc1-c1cnn(C(C)C)c1
26 | > 1000 | > 10000 | – | – | – | – | Cc1cnc(Nc2ccc(N3CCC(N(C)CCCCCO)CC3)c(F)c2)nc1-c1cnn(C(C)C)c1
27 | 5.4 | 100 | 17 | 5 | 23 | 8 | Cc1cnc(Nc2ccc(N3CCC(N(C)C)CC3)c(F)c2)nc1-c1cnn(C(C)C)c1
28 | 8.1 | 31 | 20 | 15 | 31 | 4 | Cc1cnc(Nc2ccc(N3CCC(N(C)CC4CC4)CC3)c(F)c2)nc1-c1cnn(C(C)C)c1
29 | 160 | 840 | – | – | – | – | Cc1cnc(Nc2ccc(N3CCC(CO)CC3)c(F)c2)nc1-c1cnn(C(C)C)c1
30 | 42 | 120 | 35 | 3 | 40 | 6 | Cc1cnc(Nc2ccc(N3CCN(C)CC3)c(F)c2)nc1-c1cnn(C(C)C)c1
31 | 18 | 89 | 20 | 23 | 37 | 5 | Cc1cnc(Nc2ccc(N3CCC(N(C)CCN4CCOCC4)CC3)c(F)c2)nc1-c1cnn(C(C)C)c1
32 | 7.3 | 28 | 19 | 9 | 28 | 5 | CCOCCN(C)C1CCN(c2ccc(Nc3ncc(C)c(-c4cnn(C(C)C)c4)n3)cc2F)CC1
